Laboratory results reported in US10292991B2, “Small molecule therapeutic compounds that reduce the incidence of intracerebral hemorrhage and brain microhemorrhages” (St. Michaels Hospital, priority 2016, dated 2019).

Legend:
[1] = tested on: LPS-induced brain microbleeds in mice; assay: LPS-induced microbleeding mouse model; format: in vivo, C57BL/6 mice
Description: An LPS-mediated micro bleeding model was created similar to that described in Lui et al (Liu S, Grigoryan M M, Vasilevko V et al. Comparative analysis of H&E and Prussian blue staining in a mouse model of cerebral microbleeds. J Histochem Cytochem 2014; 62:767-773). 9-10 week old C57BL/6 mice of both sexes were purchased from Charles River, and randomly assigned to control or treatment groups in equal numbers. LPS from Salmonella enterica (Sigma Aldrich, St Louis, Mo.) was reconstituted with PBS to a final concentration of 5 mg/ml. Both control (n=16) and drug treatment (n=16) groups received injections of 5 mg/kg LPS at times 0 and 24 hrs. The drug treatment group, further divided into high dose (n=4) and low dose (n=12), received intraperitoneal injections of artemether (ARM) (25 mg/kg for Low dose and 100 mg/kg for High dose) at time points −72, −48, −24, 0 and 24 hrs of LPS treatment. All mice were sacrificed at 48 hrs after the first LPS injection.
LPS-induced microbleeding model: All mice in the LPS study were deeply anesthetized with ketamine and xylazine and perfused through the left cardiac ventricle with NaCl, 0.9%, followed by 4% paraformaldehyde (PFA) in 1×PBS buffer and 2 mM Gadoteridol contrast agent for 24 hours. Each brain was transferred into a 1×PBS+0.02% sodium azide and 2 mM Gadoteridol contrast agent. Brains were kept in this immersion solution for 14 days before imaging to ensure proper contrast diffusion in the brain for magnetic resonance imaging (MRI) scan. […]
For the integrin ICH model, brains were taken out of the skull, cut at the mid-coronal position and assessed in a binary manner for whether or not there was any evidence of ICH. […]
Brains were scanned using 7T Burker MRI with 16-channel solenoid coils. […] Following the reconstruction of images and applying image distortion correction algorithms, all brains were processed and analyzed for total volume of brain and total volume of hemorrhage. Quantification was done using percentage of bleeding (normalized to each brain size). […] Lastly, quantification was done in a blinded fashion. […]

[2] = tested on: Pak2a - exon8 morpholino-induced hemorrhage in zebrafish; assay: Pak2a morpholino-induced hemorrhage in zebrafish, rescue by drugs; format: in vivo, zebrafish (Danio rerio); conditions: Danio rerio; Table 6
Method: Danieau buffer (58 mM NaCl, 0.7 mM KCl, 0.4 mM MgSO4, 0.6 mM Ca(NO3)2, 5.0 mM HEPES, pH 7.6) was used to dilute the MO solutions to 0.2 mM final concentration. Individual wells were placed on a 1.0% agarose plate, in which the embryos were positioned. Afterwards, the MO solution was injected through the cell yolk into embryos of 1 to 4 cell-stage. The injected quantities varied from 0.5 to 15 ng.
Another MO was designed to block the splice-donor sites after exon 8 in pak2a. Pak2a is the gene mutated in the rhdmi149 zebrafish mutant that develops ICH/BMH.
Efficacy assays were performed using Artemether (ARM, Sigma) and artemesunate (ART, GMP).

Structure (SMILES): CO[C@H]1O[C@@H]2O[C@@]3(C)CC[C@H]4[C@H](C)CC[C@@H]([C@H]1C)[C@@]24OO3 [Artemether]
- Total number of microbleeds inside the brain (H&E slices) ([1]; LPS+ARM vs LPS, n=8, P<0.01): significantly reduced
- Total surface microbleeds (stereomicroscope count) ([1]; LPS+ARM vs LPS, n=8, P<0.05): robust reduction
- Reduction of bleeding (MRI, total microbleed volume normalized to brain volume) ([1]; vs model control group, n=8, P<0.05): about ⅔
- EC50 [2]: 39.1 ± 8 nM
